Among the data in patent publication EP2567959B1, “6-(4-HYDROXY-PHENYL)-3-STYRYL-1H-PYRAZOLO[3,4-B]PYRIDINE-4-CARBOXYLIC ACID AMIDE DERIVATIVES AS KINASE INHIBITORS” (SANOFI, priority 2011, dated 2013) are inhibition values, retold here.

The term inhibition denotes the change of the read-out against control, counted positive when it falls.

One test deals with T1, human full-length recombinant PKC βII (Homo sapiens, UniProt P05771).
T1 construct: Active human full-length recombinant PKC βII; purchased Invitrogen GmbH, Darmstadt, Germany
T1 sequence (P05771 1-673 isoform P05771-2): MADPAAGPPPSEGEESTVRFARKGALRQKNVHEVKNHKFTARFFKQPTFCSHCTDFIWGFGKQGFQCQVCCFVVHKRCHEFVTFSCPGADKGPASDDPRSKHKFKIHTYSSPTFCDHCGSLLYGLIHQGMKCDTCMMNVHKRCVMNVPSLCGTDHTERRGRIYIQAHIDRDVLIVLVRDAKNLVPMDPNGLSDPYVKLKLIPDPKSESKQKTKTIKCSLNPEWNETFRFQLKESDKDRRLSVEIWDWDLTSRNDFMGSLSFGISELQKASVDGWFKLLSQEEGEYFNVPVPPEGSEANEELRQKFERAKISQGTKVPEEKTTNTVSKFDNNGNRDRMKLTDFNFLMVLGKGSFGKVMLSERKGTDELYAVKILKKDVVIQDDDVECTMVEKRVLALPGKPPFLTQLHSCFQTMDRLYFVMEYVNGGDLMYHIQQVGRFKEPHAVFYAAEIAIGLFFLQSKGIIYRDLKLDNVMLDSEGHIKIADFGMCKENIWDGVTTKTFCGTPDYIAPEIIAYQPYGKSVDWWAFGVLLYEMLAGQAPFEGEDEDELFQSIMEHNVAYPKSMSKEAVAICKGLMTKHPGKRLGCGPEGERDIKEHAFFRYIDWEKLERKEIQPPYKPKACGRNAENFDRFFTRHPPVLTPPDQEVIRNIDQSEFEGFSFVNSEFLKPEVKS
The experiment in a line: Determination of PKC βII inhibition (Caliper mobility-shift kinase assay, phosphorylation of fluorescein peptide substrate). The conditions noted are these: 1 h; final compound concentration 1.14 µM (±0.15 µM); 60 min incubation at 32 °C. Format: biochemical. Here is the method: Determination of PKC βII inhibition
PKC βII inhibition was determined according to the following protocol:
Active human full-length recombinant PKC βII and the peptide substrate, Fluorescein-RFARKGSLRQKNV, were purchased from Invitrogen GmbH, Darmstadt, Germany. Adenosine-5'-triphosphate (ATP), bovine serum albumine (BSA), dimethylsulphoxide (DMSO), 4-(2-hydroxyethyl)piperazine-1-ethanesulfonic acid (Hepes), Triton X-100, 1,2-Dioleoyl-sn-glycerol (DAG), L-α-Phosphatidyl-L-serine (PS), calcium chloride (CaCl2), and Pluronic F-68 were purchased from Sigma-Aldrich, Munich, Germany. Magnesium chloride, 1 M sodium hydroxide solution, 1M hydrochloric acid solution and EDTA were obtained from Merck Biosciences, Darmstadt, Germany.
Test compounds were diluted to three times the test concentration in buffer 1 (30 mM Hepes-NaOH, pH 7.4, 0.01 % Pluronic F-68 and 3 % (v/v) DMSO). The PKC βII enzyme was diluted to a concentration of 30 ng/ml in buffer 2 (30 mM Hepes-NaOH, pH 7.4, 15 mM MgCl2,150 µM CaCl2, 150 µg/ml PS, 60 µg/ml DAG, and 0.045 % (w/v) Triton X-100). The peptide substrate and ATP were diluted to concentrations of 3 µM and 120 µM, respectively, in buffer 2. Two µl of the compound solution were mixed with 2 µl of the diluted enzyme in a 384-well small volume microtiter plate (Greiner, Bio-One, Frickenhausen, Germany), and the kinase reaction was initiated by addition of 2 µl of the solution containing peptide substrate and ATP. After 60 min incubation at 32 °C, the reaction was stopped by addition of 20 µl of a solution containing 130 mM Hepes-NaOH, pH 7.4, 0.0195 % (v/v) Brij-35, 6.5 mM EDTA, 0.13 % chip coating reagent 3 (Caliper Lifescience Inc, Hopkinton, MA) and 6.5 % (v/v) DMSO. Phosphorylation of the substrate peptide was then detected on a Caliper 3000 instrument essentially as described by Pommereau et al (J. Biomol. Screening 2004, 9(5), 409-416). Separation conditions were as follows: Pressure -0.8 psi, upstream voltage - 3000 V, downstream voltage -800 V. Positive controls (buffer 1 instead of compound) and negative controls (buffer 1 instead of compound and buffer 2 instead of kinase solution) were run in parallel on each plate. Fractional turnover (R) was determined as the height of the peak of the phosphorylated peptide product divided by the sum of the unphosphorylated substrate and phosphorylated product peak heights. Percent-inhibition values for the test compounds were determined using the formula % Inhibition = 100*(1-(Rcompound-Rnegative control)/(Rpositive control-Rnegative control). [formula]
In the following table % inhibition values observed with example compounds at a final concentration of 1.14 µM (±0.15 µM) are listed: […]
`O=C(c1cc(-c2ccc(O)cc2)nc2[nH]nc([C@H]3C[C@@H]3c3ccccc3)c12)N1CCNCC1` (racemic) [Example 18, (±)-[6-(4-Hydroxy-phenyl)-3 trans-(2-phenyl-cyclopropyl)-1 H-pyrazolo[3,4-b]pyridin-4-yl]-piperazin-1-yl-methanone]: the inhibition at 1.14 µM was 94%.

Staying with this test, now noted: final compound concentration 1.14 µM (±0.15 µM); 60 min incubation at 32 °C.
With `O=C(c1cc(-c2ccc(O)cc2)nc2[nH]nc(/C=C/c3ccc(Cl)cc3)c12)N1CCNCC1` [Example 1, [3-[(E)-2-(4-Chloro-phenyl)-vinyl]-6-(4-hydroxy-phenyl)-1 H-pyrazolo[3,4-b]pyridin-4-yl]-piperazin-1-yl-methanone], the inhibition at 1.14 µM turned out to be 86%.
Still for that read-out and setting: with `O=C(c1cc(-c2ccc(O)cc2)nc2[nH]nc(/C=C/c3ccccc3)c12)N1CCNCC1` [Example 2, [6-(4-Hydroxy-phenyl)-3-((E)-styryl)-1H-pyrazolo[3,4-b]pyridin-4-yl]-piperazin-1-yl-methanone] the figure was 97%.
Take `CC1(C)CNCCN1C(=O)c1cc(-c2ccc(O)cc2)nc2[nH]nc(/C=C/c3ccccc3)c12` [Example 3, (2,2-Dimethyl-piperazin-1-yl)-[6-(4-hydroxy-phenyl)-3-((E)-styryl)-1 H-pyrazolo[3,4-b]pyridin-4-yl]-methanone]: the inhibition at 1.14 µM came to 88%.
As to `CC1(C)CN(C(=O)c2cc(-c3ccc(O)cc3)nc3[nH]nc(/C=C/c4ccccc4)c23)CCN1` [Example 4, (3,3-Dimethyl-piperazin-1-yl)-[6-(4-hydroxy-phenyl)-3-((E)-styryl)-1H-pyrazolo[3,4-b]pyridin-4-yl]-methanone], the inhibition at 1.14 µM stood at 99%.
Consider `CC(C)C[C@H]1CN(C(=O)c2cc(-c3ccc(O)cc3)nc3[nH]nc(/C=C/c4ccccc4)c23)CCN1` [Example 5, [6-(4-Hydroxy-phenyl)-3-((E)-styryl)-1H-pyrazolo[3,4-b]pyridin-4-yl]-((S)-3-isobutyl-piperazin-1-yl)-methanone], for which the inhibition at 1.14 µM amounted to 85%.
As for `C[C@H]1CNCCN1C(=O)c1cc(-c2ccc(O)cc2)nc2[nH]nc(/C=C/c3ccccc3)c12` [Example 6, [6-(4-Hydroxy-phenyl)-3-((E)-styryl)-1H-pyrazolo[3,4-b]pyridin-4-yl]-((S)-2-methyl-piperazin-1-yl)-methanone], the inhibition at 1.14 µM came to 98%.
As to `Cc1cc(O)ccc1-c1cc(C(=O)N2CCNCC2)c2c(/C=C/c3ccccc3)n[nH]c2n1` [Example 7, [6-(4-Hydroxy-2-methyl-phenyl)-3-((E)-styryl)-1H-pyrazolo[3,4-b]pyridin-4-yl]-piperazin-1-yl-methanone], the inhibition at 1.14 µM came to 96%.
For the molecule `C[C@@H]1CN(C(=O)c2cc(-c3ccc(O)cc3)nc3[nH]nc(/C=C/c4ccccc4)c23)[C@@H](C)CN1` [Example 8, ((2S,5R)-2,5-Dimethyl-piperazin-1-yl)-[6-(4-hydroxy-phenyl)-3-((E)-styryl)-1H-pyrazolo[3,4-b]pyridin-4-yl]-methanone], the inhibition at 1.14 µM is 97%.
Turning to `COc1cc(-c2cc(C(=O)N3CCNCC3)c3c(/C=C/c4ccccc4)n[nH]c3n2)ccc1O` [Example 9, [6-(4-Hydroxy-3-methoxy-phenyl)-3-((E)-styryl)-1H-pyrazolo[3,4-b]pyridin-4-yl]-piperazin-1-yl-methanone], the inhibition at 1.14 µM is 55%.
On the same count and under the same terms, with `CC[C@H]1CNCCN1C(=O)c1cc(-c2ccc(O)cc2)nc2[nH]nc(/C=C/c3ccccc3)c12` [Example 10, ((S)-2-Ethyl-piperazin-1-yl)-[6-(4-hydroxy-phenyl)-3-((E)-styryl)-1H-pyrazolo[3,4-b]pyridin-4-yl]-methanone] the figure was 87%; with `C[C@H]1CNCCN1C(=O)c1cc(-c2ccc(O)cc2F)nc2[nH]nc(/C=C/c3ccccc3)c12` [Example 11, [6-(2-Fluoro-4-hydroxy-phenyl)-3-((E)-styryl)-1H-pyrazolo[3,4-b]pyridin-4-yl]-((S)-2-methyl-piperazin-1-yl)-methanone], 99%.
Same read-out and setting: the value for `O=C(c1cc(-c2ccc(O)c(F)c2)nc2[nH]nc(/C=C/c3ccccc3)c12)N1CCNCC1` [Example 12, [6-(3-Fluoro-4-hydroxy-phenyl)-3-((E)-styryl)-1H-pyrazolo[3,4-b]pyridin-4-yl]-piperazin-1-yl-methanone] was 97%.
The same measure, in the same setting: the value for `O=C(c1cc(-c2ccc(O)cc2Cl)nc2[nH]nc(/C=C/c3ccccc3)c12)N1CCNCC1` [Example 13, [6-(2-Chloro-4-hydroxy-phenyl)-3-((E)-styryl)-1 H-pyrazolo[3,4-b]pyridin-4-yl]-piperazin-1-yl-methanone] was 110%.
For the molecule `CN(C)Cc1cccc(/C=C/c2n[nH]c3nc(-c4ccc(O)cc4)cc(C(=O)N4CCNCC4)c23)c1` [Example 14, [3-[(E)-2-(3-Dimethylaminomethyl-phenyl)-vinyl]-6-(4-hydroxy-phenyl)-1H-pyrazolo[3,4-b]pyridin-4-yl]-piperazin-1-yl-methanone], the inhibition at 1.14 µM came to 100%.
Consider `CS(=O)(=O)Cc1cccc(/C=C/c2n[nH]c3nc(-c4ccc(O)cc4)cc(C(=O)N4CCNCC4)c23)c1` [Example 15, {6-(4-Hydroxy-phenyl)-3-[(E)-2-(3-methanesulfonylmethyl-phenyl)-vinyl]-1H-pyrazolo[3,4-b]pyridin-4-yl}-piperazin-1-yl-methanone], for which the inhibition at 1.14 µM is 99%.
Consider `O=C(c1cc(-c2ccc(O)cc2)nc2[nH]nc(/C=C/c3ccccc3)c12)N1CCNC[C@@H]1CO` [Example 16, ((R)-2-Hydroxymethyl-piperazin-1-yl)-[6-(4-hydroxy-phenyl)-3-((E)-styryl)-1H-pyrazolo[3,4-b]pyridin-4-yl]-methanone], for which the inhibition at 1.14 µM turned out to be 96%.
On the same count and under the same terms, with `O=C(c1cc(-c2ccc(O)cc2)nc2[nH]nc(CCc3ccccc3)c12)N1CCNCC1` [Example 17, [6-(4-Hydroxy-phenyl)-3-phenethyl-1H-pyrazolo[3,4-b]pyridin-4-yl]-piperazin-1-yl-methanone] the figure was 94%; with `O=C(c1ccc(/C=C/c2n[nH]c3nc(-c4ccc(O)cc4)cc(C(=O)N4CCNCC4)c23)cc1)N1CCCCC1` [Example 19, (6-(4-Hydroxy-phenyl)-3-{(E)-2-[4-(piperidine-1-carbonyl)-phenyl]-vinyl}-1Hpyrazolo[3,4-b]pyridin-4-yl)-piperazin-1-yl-methanone], 99%.
On to `O=C(c1cc(-c2ccc(O)cc2)nc2[nH]nc(/C=C/c3cccc(N4CCCC4=O)c3)c12)N1CCNCC1` [Example 20, 1-(3-{(E)-2-[6-(4-Hydroxy-phenyl)-4-(piperazine-1-carbonyl)-1H-pyrazolo[3,4-b]pyridin-3-yl]-vinyl}-phenyl)-pyrrolidin-2-one], for which the inhibition at 1.14 µM was determined as 115%.
As for `Cc1ccc(/C=C/c2n[nH]c3nc(-c4ccc(O)cc4)cc(C(=O)N4CCNCC4)c23)cc1` [Example 21, [6-(4-Hydroxy-phenyl)-3-((E)-2-p-tolyl-vinyl)-1H-pyrazolo[3,4-b]-pyridin-4-yl]-piperazin-1-yl-methanone], the inhibition at 1.14 µM came to 98%.
Consider `CS(=O)(=O)c1cccc(/C=C/c2n[nH]c3nc(-c4ccc(O)cc4)cc(C(=O)N4CCNCC4)c23)c1` [Example 22, {6-(4-hydroxy-phenyl)-3-[(E)-2-(3-methanesulfonyl-phenyl)-vinyl]-1H-pyrazolo[3,4-b]-pyridin-4-yl}-piperazin-1-yl-methanone], for which the inhibition at 1.14 µM was determined as 100%.
In the case of `CN(C)c1cccc(/C=C/c2n[nH]c3nc(-c4ccc(O)cc4)cc(C(=O)N4CCNCC4)c23)c1` [Example 23, [3-[(E)-2-(3-Dimethylamino-phenyl)-vinyl]-6-(4-hydroxy-phenyl)-1H-pyra-zolo[3,4-b]pyri-din-4-yl]-pipe-razin-1-yl-methanone], the inhibition at 1.14 µM stood at 99%.
Turning to `CS(=O)(=O)c1ccc(/C=C/c2n[nH]c3nc(-c4ccc(O)cc4)cc(C(=O)N4CCNCC4)c23)cc1` [Example 24, {6-(4-hydroxy-phenyl)-3-[(E)-2-(4-methanesulfonyl-phenyl)-vinyl]-1H-pyra-zolo[3,4-b]pyri-din-4-yl}-pipe-razin-1-yl-methanone], the inhibition at 1.14 µM came to 99%.
